According to patent US20250092093A1, “Androgen receptor protein degradation-inducing peptides for prostate cancer treatment” (priority 2023, published 2025):
Changes are numbered by the printed parent chain. Ends that are not written are not given here. * marks the point of attachment. Myristoyl = CCCCCCCCCCCCCC(=O)*

Experiments:
[1] = biological target: T1, AR protein (Homo sapiens, UniProt P10275); settings: reported in the literature [3]; cited from earlier work
T1 sequence (P10275 1-920): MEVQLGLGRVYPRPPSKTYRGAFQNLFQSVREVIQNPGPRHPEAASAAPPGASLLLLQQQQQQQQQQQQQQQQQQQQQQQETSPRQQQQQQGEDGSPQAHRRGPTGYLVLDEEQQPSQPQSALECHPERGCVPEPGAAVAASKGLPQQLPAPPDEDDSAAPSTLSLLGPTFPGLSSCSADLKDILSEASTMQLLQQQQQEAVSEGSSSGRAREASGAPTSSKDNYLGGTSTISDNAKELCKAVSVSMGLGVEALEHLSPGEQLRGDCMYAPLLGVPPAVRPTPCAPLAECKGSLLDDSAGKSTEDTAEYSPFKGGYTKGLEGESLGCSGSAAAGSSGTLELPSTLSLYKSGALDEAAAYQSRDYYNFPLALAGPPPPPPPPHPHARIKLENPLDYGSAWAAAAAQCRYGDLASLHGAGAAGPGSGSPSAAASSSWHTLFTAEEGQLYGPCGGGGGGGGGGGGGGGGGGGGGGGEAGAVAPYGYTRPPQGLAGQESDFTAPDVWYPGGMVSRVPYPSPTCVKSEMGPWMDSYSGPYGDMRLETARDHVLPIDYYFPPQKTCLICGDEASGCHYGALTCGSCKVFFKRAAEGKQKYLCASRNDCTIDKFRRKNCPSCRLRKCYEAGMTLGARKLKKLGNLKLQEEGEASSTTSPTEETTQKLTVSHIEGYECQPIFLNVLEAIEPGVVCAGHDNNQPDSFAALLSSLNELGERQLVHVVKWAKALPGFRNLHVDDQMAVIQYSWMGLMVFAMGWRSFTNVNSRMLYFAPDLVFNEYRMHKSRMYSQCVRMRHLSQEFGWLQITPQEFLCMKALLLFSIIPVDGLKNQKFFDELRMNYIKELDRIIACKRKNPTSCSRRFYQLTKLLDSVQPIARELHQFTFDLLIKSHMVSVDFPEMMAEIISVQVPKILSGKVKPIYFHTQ

[2] = biological target: T2, AR protein (Homo sapiens, UniProt P10275, T878A); experiment: AR protein level by western blot in C4-2B cells; type: cell-based; settings: 10 micro-M
T2 construct: C4-2B cells were treated with peptides (10 micro-M) for 24 h as indicated, and AR protein levels were assessed by western blots; endogenous in cells; host or cells: C4-2B
T2 sequence (P10275 1-920 T878A): T1 sequence (P10275 1-920) with T878A
Experimental: (§1) A. C4-2B cells were treated with peptides (10 micro-M) for 24 h as indicated, and AR protein levels were assessed by western blots. B. C4-2B cells were treated with peptides and harvested for western blot assay with an anti-PARP antibody. Actin blot served as a protein loading control. C. Flow cytometry analysis of subG1/GO cell cycle population in C4-2B cells after peptide treatment (10 micro-M) in 2% charcoal-stripped FBS for 24 h. Data represents two experiments. The asterisk indicates a significant difference compared to the DSMO control (p<0.05, Student t-test).
A. Peptide analogs were synthesized as listed in the top panel. The myristylation sequence was conjugated to the N-terminal of the peptide for penetrating the plasma membrane. B. Prostate cancer C4-2B cells were treated with the agents at a concentration of 10 micro-M for 48 h. Cells were harvested for western blot assay with AR antibody (clone PG21). The Actin blot served as a protein loading control. […]
We further characterized the ARi14 peptide for its core sequence of action. The ARi14 peptide was chopped into two fragments, the 7-mer ARi7 peptide (EAAAYQS) and 8-mer ARi8 peptide ([…]), and their AR degradation inducing ability was compared to the original 14-mer peptide (FIG. 3). These peptides were synthesized with an N-terminal myristylation signal to facilitate cellular uptake. […]

[3] = system: C4-2B cells; experiment: Apoptotic cell death by PARP cleavage western blot in C4-2B cells; type: cell-based; settings: N-terminal myristylated peptides
Experimental: as §1
(§2) We further characterized the ARi14 peptide for its core sequence of action. The ARi14 peptide was chopped into two fragments, the 7-mer ARi7 peptide (EAAAYQS) and 8-mer ARi8 peptide ([…]), and their AR degradation inducing ability was compared to the original 14-mer peptide (FIG. 3). These peptides were synthesized with an N-terminal myristylation signal to facilitate cellular uptake.

[4] = system: C4-2B cells; experiment: Flow cytometry analysis of subG1/GO cell cycle population in C4-2B cells; type: cell-based; settings: Enzalutamide-resistant C4-2B cells, 10 micro-M, 24 h, 2% charcoal-stripped FBS
Experimental: as §1, §2

[5] = biological target: T1, AR protein; experiment: AR protein level by western blot in LAPC-4 cells; type: cell-based; settings: 10 micro-M, 24 h, 2% charcoal-stripped FBS
Experimental: (§3) A. ARi14 peptide was fused with the KDM4A CPP sequence via a short link (KDM4A-ARi14). This fused peptide was labeled with FITC fluorescent dye. B. LAPC-4 cells were treated with the solvent, or the peptides as indicated at 10 micro-M in 2% charcoal-striped FBS-supplied media for 24 h. Cellular proteins were subjected to a western blot with an anti-AR antibody (clone PG21). Actin blot served as a protein loading control. C. Microscopic images were shown for cell viability. Note: white arrows indicate a cluster of dying cells loaded with fluorescent-labeled peptides.
(§4) To achieve a better intracellular distribution of the peptide, a cellular penetrating peptide (CPP) derived from the KDM4A protein was fused to the N-terminal of the ARil4 peptide via a short link sequence GGGS (FIG. 2A).

[6] = system: LAPC-4 cells; experiment: Cell viability / cell death by microscopic images in LAPC-4 cells; type: cell-based; settings: 10 micro-M, 24 h
Experimental: as §3, §4

[7] = N-terminal myristylated peptides, 24 h

COc1ccc(/C=C/C(=O)/C=C(O)/C=C/c2ccc(OC)c(OC)c2)cc1OC [ASC-J9]
AR protein degradation in prostate cancer cells [1]: induced AR protein degradation

SRDYYNFP [ARi8, 8-mer fragment of ARi14, synthesized with an N-terminal myristylation signal]
AR reduction [2, 7]: 92% | apoptotic cell death evidenced by PARP cleavage [3]: more profound apoptotic cell death than ARi14 | cell cycle arrest at the subG1/GO phase [4]: induced cell cycle arrest

EAAAYQS [ARi7, 7-mer fragment of ARi14, synthesized with an N-terminal myristylation signal]
impact on the AR protein level [2, 7]: no impact

EAAAYQSRDYYNFP [ARi14, decoy peptide derived from the AR N-terminal domain, amino acids 355-368; myristylated form used in b32]
AR protein level [5]: no apparent effect | cell death response / cell viability [6]: no apparent effect | AR reduction [2, 7]: 78% | cell cycle arrest at the subG1/GO phase [4]: induced cell cycle arrest

ARi10: new analog of ARi8, myristylation sequence at the N-terminal (Myristoyl-YQSRDYYNFP)
AR protein levels ([2]; myristylated peptides, 48 h): largely reduced
